Source: PubChem BioAssay (NCI)
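Briefly, cells in 96-well plates were exposed to five compound concentrations for 48 h, and endpoints were estimated by linear interpolation. At the GI50, growth is halved. At the TGI there is no net growth.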

Experiments:
Assay in all cases: NCI anticancer screen, dose series, 48 h
HOP-62 NSCLC = test system: HOP-62 NSCLC
BT-549 breast = test system: BT-549 breast
UACC-257 melanoma = test system: UACC-257 melanoma
RXF 393 renal = test system: RXF 393 renal
HT29 colon = test system: HT29 colon
HCC-2998 colon = test system: HCC-2998 colon
HS 578T breast = test system: HS 578T breast
EKVX NSCLC = test system: EKVX NSCLC
HCT-15 colon = test system: HCT-15 colon
HOP-92 NSCLC = test system: HOP-92 NSCLC

Structure (SMILES)	TGI (HOP-62 NSCLC) [µM]	TGI (BT-549 breast) [µM]	TGI (UACC-257 melanoma) [µM]	TGI (RXF 393 renal) [µM]	TGI (HT29 colon) [µM]	TGI (HCC-2998 colon) [µM]	TGI (HS 578T breast) [µM]	TGI (EKVX NSCLC) [µM]	TGI (HCT-15 colon) [µM]	TGI (HOP-92 NSCLC) [µM]	GI50 (HOP-62 NSCLC) [µM]	GI50 (BT-549 breast) [µM]	GI50 (UACC-257 melanoma) [µM]	GI50 (RXF 393 renal) [µM]	GI50 (HT29 colon) [µM]	GI50 (HCC-2998 colon) [µM]	GI50 (HS 578T breast) [µM]	GI50 (EKVX NSCLC) [µM]	GI50 (HCT-15 colon) [µM]	GI50 (HOP-92 NSCLC) [µM]
O=P1(O)c2ccccc2CS(=O)(=O)Cc2ccccc21	> 100	> 100	> 100	> 100	> 100	> 100	> 100	> 100	> 100	> 100	–	–	–	–	–	–	–	–	–	–
COc1cccc(Nc2nccc(Nc3ccc4[nH]ncc4c3)n2)c1	3.78	3.71	3.72	2.33	3.45	3.36	4.61	4.09	2.91	4.14	1.71	1.67	2.04	1.06	1.52	1.79	1.79	1.64	1.21	1.45
N#CSCC(=O)c1ccc(Cl)cc1	28.8	11.4	> 28.6	5.18	19.7	27.8	16.3	26.5	32.2	29	5.19	2.69	5.64	2.05	3.59	12.1	2.9	4.99	2.85	6.02
C/C(=N\Nc1cccc(Cl)n1)c1ccccn1	16.9	> 71.8	7.51	16.1	> 100	> 100	> 100	18.6	> 100	21.1	0.456	1.4	2.27	0.982	0.909	0.75	5.08	0.411	0.363	1.32
Cc1cc2c(C(C)C)c(O)c(O)c(C=O)c2c(O)c1-c1c(C)cc2c(C(C)C)c(O)c(O)c(C=O)c2c1O (tested in a mixture with another compound)	2.9	3.76	4.12	2.52	3.51	1.76	4.33	3.18	2.99	0.909	0.988	1.26	1.79	1	1.61	0.484	0.543	0.473	0.79	0.223
CC(=O)OCC(=O)C1(O)C(C)CC2C3C=C(C)C4=Cc5c(cnn5-c5ccccc5)CC4(C)C3C(O)CC21C (stereo not drawn)	3.52	3.85	12.2	2.39	2.42	3.66	4.75	13.1	2.54	7.39	1.35	1.25	2.96	0.781	0.971	1.92	1.17	1.48	1.15	0.0261
CCN1C(=O)N(CC)C2C1NN=c1s/c(=C\c3ccccc3)c(=O)n12 (stereo not drawn)	> 100	> 100	> 100	> 100	> 42.2	> 100	> 100	> 100	> 100	> 100	0.377	0.199	> 72.7	0.0748	0.0989	0.282	0.146	0.388	0.0692	29.7
COc1cc(/C=C/C(=O)c2ccc(Nc3nc(Nc4ccccc4)nc(Nc4ccc(Cl)cc4)n3)cc2)cc(OC)c1OC	> 32.5	> 32.5	> 32.5	25.3	> 32.5	> 32.5	> 32.5	> 32.5	> 32.5	> 32.5	> 32.5	7.51	> 32.5	5.09	5.39	> 32.5	15.2	24.1	8.86	1.91
CCOc1cc(/C=N\NC(=O)N/N=C/c2ccc(O)c(OCC)c2)ccc1O	> 100	> 100	> 100	7.19	> 100	> 100	> 100	> 100	> 100	> 100	–	24.5	72.1	1.76	3.38	2.97	1.16	4.38	3.1	87.5
O=C(Nc1ccc(S(=O)(=O)NC2CCCCCC2)cc1)C(c1ccccc1)S(=O)(=O)c1ccc(F)cc1 (stereo not drawn)	3.86	1.61	2.98	0.562	1.56	2.35	3.05	2.95	2.08	3.9	0.97	0.348	0.621	0.217	0.214	0.868	0.588	0.377	0.182	0.845
CCc1ccccc1-n1c(N)c(C#N)c(-c2ccc(OC)c(OC)c2)c(C#N)c1=O	34.3	49.5	72.6	35.3	> 100	> 100	41.3	> 100	> 100	29	17.1	19.4	23.9	16.3	41	31.9	15.5	41.1	37.4	0.283
CC[C@H](C)[C@H](NC(=O)C12CC(NC(C)=O)(C1)C2)C(=O)N(C)[C@H](C[C@@H](OC(C)=O)c1nc(C(=O)N[C@@H](Cc2ccccc2)C[C@H](C)C(=O)OC)cs1)C(C)C	> 10.4	3.41	> 16.7	> 16.7	> 5.52	> 16.7	> 9.51	> 16.7	> 16.7	> 16.7	0.473	0.0824	7	0.359	0.0731	0.21	0.505	1.09	1.09	> 11.8
ClC1=C(Cl)C(Cl)=C(Cl)C1=Cc1ccc(Cl)cc1	2.3	1.58	3.3	0.842	0.735	2.54	–	3.08	2.56	3.84	0.802	0.428	1.37	0.267	0.27	1.14	0.585	0.816	0.536	1.53
C=C1C(=O)OC2CC3(C)OC3C3OC3C3=CC(OC3=O)C12 (stereo not drawn)	41.5	21.5	4.03	3.66	10.8	33.9	68.7	41.9	6.45	4.77	15.2	8.33	1.92	1.81	3.21	17.4	19.3	19	2.4	2.01
CS(=O)(=O)c1nc(Cl)c(Cl)c(C#N)c1Cl	35.6	3.37	5.52	3.07	4.35	29.8	> 58.7	27.4	3.5	3.73	–	–	–	–	–	–	–	–	–	–
CCCCCCC1N=C(N)N=C(N)N1c1ccc(Cl)cc1 (stereo not drawn)	39.6	18.3	68.8	38.6	16.8	22	18.2	45.4	> 100	22.1	6.93	3.37	13	10.6	2.66	8.95	2.35	8.7	> 100	2.62
